# Assay results reported in publication PMC12040169 (PLOS Biology, 2025).
# Test: in vitro
# Details: human, hela cells, % viability
row,Structure (SMILES),"viability at 28.5 h, 10 µM"
1,O=C(NC(c1ccccc1)c1cccnc1)C1CCN(C(=O)CN2C(=O)c3ccccc3C2=O)CC1 (stereo not shown) [CBK060515],108%
2,Cc1cc(NC(=O)CNC(=O)c2ccccc2)no1 [CBK073427],99.7%
3,C=Cn1cc(CN2C3CCC2CC(O)(c2ccc(C)cc2)C3)c(C)n1 (stereo not shown) [CBK283015],90.5%
4,CCN(CC)CC(=O)Nc1c2c(nc3ccccc13)N(C)CC2 [CBK023917C],110%
5,O=C(O)CCC(CCC(=O)O)C(=O)O [CBK260994],95.1%
6,COc1ccc(C2CCN(CC(=O)NC3CCCC3)CC2)cc1 [CBK283565],98%
7,CCC(=O)N1CCCc2cc(C(O)CN3CCCCC3)ccc21 (stereo not shown) [CBK282130],81.6%
8,O=C(O)/C=C/C(=O)NN1C(=O)c2ccccc2C1=O [CBK286962],86.9%
9,COc1cccc(CN2CCC(Cc3ccccc3-c3ccc(C)cc3C)(C(=O)O)CC2)c1 [CBK286420],95.5%
10,Cc1nn2cc(CNC(=O)C3Cc4ccccc4O3)nc2s1 (stereo not shown) [CBK307498],73.4%
11,COc1ccc(-n2nc(C)c3onc(C)c3c2=O)cc1 [CBK000853],101%
12,O=C(O)c1cc(C(=O)O)n(Cc2ccccc2Cl)n1 [CBK269381],88.1%
13,Fc1cccc(COc2nc3ccccc3n3nnnc23)c1 [CBK288198],114%
14,Cc1ccc2[nH]c(C3CCCCN3C(=O)c3ccncc3)nc2c1 (stereo not shown) [CBK284000],103%
15,CC(C)Nc1nccnc1-c1cccnc1 [CBK037054],98.9%
16,CC(C)[C@H]1CN(Cc2cc(C#N)n(C)c2)C[C@@H]1NC(=O)C1CCC1 [CBK306832],91.6%
17,Cc1ccc(S(=O)(=O)N(CC(=O)Nc2cccnc2)c2cccc(Br)c2)cc1 [CBK264094],62.8%
18,Cc1ccc(C2=NN(C(=N)SC3CC(=O)N(c4ccc(C(=O)O)cc4)C3=O)C(c3ccc(Br)cc3)C2)cc1 (stereo not shown) [CBK263497],112%
19,O=C(c1cc[nH]c1)N1CCCC2(CCN(C(=O)c3ccoc3)C2)C1 (stereo not shown) [CBK131629],105%
20,CCOc1ccc(OC(=O)c2ccc3c(c2)OCO3)cc1 [CBK149205],92.6%
21,CS(=O)(=O)c1ncc(Cl)c(C(=O)N(Cc2ccccc2)c2ccccn2)n1 [CBK269489],95%
22,Cc1c(NC(=O)Nc2ccccc2)sc(=S)n1C [CBK027434],90.6%

row,Structure (SMILES),"viability at 28.5 h, 10 µM"
1,CN1CCCC(Cc2cc(-c3ccccc3)no2)(C(=O)N(C)C)C1 (stereo not shown) [CBK281674],102%
2,Cn1nnnc1SCCNC(=O)Nc1cccc(CN2CCCCC2)c1 [CBK306872],97.3%
3,Cc1csc2c(C3CCN(C(=O)c4cc[nH]n4)CC3)nc(C)n12 [CBK285245],91.9%
4,Cc1cc(Br)c(NC(=O)COc2ccc(/C=C(\C#N)C(N)=S)cc2)cc1C [CBK269014],97.5%
5,COc1cc(CN2CCN(Cc3cccc([N+](=O)[O-])c3)CC2)c([N+](=O)[O-])cc1OC [CBK263111],99.9%
6,NC(=O)c1c(NC(=O)c2ccc3ncsc3c2)sc2c1CCCC2 [CBK287369],94.4%
7,C=CCNC(CC(=O)Nc1ccc(C)c(Cl)c1)C(=O)O (stereo not shown) [CBK266892],92.8%
8,CC1CCCN(C(=O)c2coc(COc3ccc(F)cc3)n2)C1 (stereo not shown) [CBK306874],85.5%
9,CCc1cn(C[C@H](NC(=O)C2CCC2)C(=O)O)c(=O)[nH]c1=O [CBK289663],97.1%
10,COc1ccc(C(C)C)cc1-c1ccc(C(=O)N2CCN(C)CC2)c(N(C)C)n1 [CBK106130],88%
11,OC(CN(c1ccccc1)c1ccccc1)Cn1cnc2ccccc21 (stereo not shown) [CBK261417],86.8%
12,CCc1nc2ccc(C(=O)N3CCN(C)CC3)cn2c1N(C)Cc1ccc(NC(C)=O)cc1 [CBK145603],87%
13,CC(C)(C)NC(=O)C[C@@H]1CCNC[C@@H]1Cc1cc(-c2ccccc2)on1 [CBK289145],86%
14,O=C(CCn1cnc2ccccc2c1=O)Nc1ccc(S(=O)(=O)N2CCCC2)cc1 [CBK267642],93%
15,Cc1cc(CNC(=O)c2ccc3c(c2)OCO3)c2ccccc2n1 [CBK270014],72.1%
16,CCn1cc(C(=O)N2C[C@H](C(=O)OC)[C@@H](c3ccc(F)cc3)C2)cn1 [CBK283719],89.7%
17,Cc1ccccc1CN1CCC(O)(c2cccnc2F)CC1 [CBK284376],96%
18,COc1ccc(-c2nc(NCc3ccccc3)n(C(=O)c3ccc([N+](=O)[O-])cc3)n2)cc1 [CBK268265],92.8%
19,CC(=O)Nc1nc2[nH]c(C)c(Cc3ccccc3)c(=O)n2n1 [CBK288202],89%
20,Cc1c(C(N)=O)sc2ncn(CCc3ccccc3)c(=O)c12 [CBK268492],103%
21,C=Cn1ncc(CN2CCN(C3CCCCC3)C(=O)C2)c1C [CBK282526],107%
22,CC(=O)N1CCc2c(sc3nc(N)c(C(=O)NCCc4ccc(F)cc4)c(C(F)(F)F)c23)C1 [CBK269176],94.4%

row,Structure (SMILES),"viability at 28.5 h, 10 µM"
1,COc1ccccc1N1CCN(C(=O)N(CCN)CCC(C)c2ccccc2)CC1 (stereo not shown) [CBK002137C],88.7%
2,CCc1ccc(S(=O)(=O)Nc2ccc(O)c(C(=O)O)c2)cc1 [CBK299827],90.7%
3,Cc1nn(C)cc1C(=O)N1CCC2(C/C=C/CCOc3ccccc3C(=O)NCCCNC2=O)CC1 [CBK292154],110%
4,Cc1ccccc1-c1ccc(C(=O)N(C)CCN(C)C)c(N(C)C)n1 [CBK106090],96%
5,CN1CCN(C2=NC(=O)CC(C(=O)Nc3ccccc3)N2)CC1 (stereo not shown) [CBK267884],97.1%
6,NC(=O)c1ccccc1-c1cnc(N)c(-c2ccc(O)cc2)n1 [CBK115536],89.4%
7,O=C(CSc1ccc(Cl)cc1)N1CCN(c2ccc([N+](=O)[O-])c(N3CCOCC3)c2)CC1 [CBK269670],85.3%
8,COC(=O)C1CCN(C(=O)c2ccc(Oc3cccc(Br)c3)nc2)CC1 [CBK304235],103%
9,CC(C)c1csc(CNC(=O)NC2CCCN(c3ccn(C)n3)C2=O)n1 (stereo not shown) [CBK304447],83.6%
10,FC(F)(F)c1ccnc(OC2CCNCC2)n1 [CBK113294],118%
11,Cc1nc(C2CCCC2)cc([C@H]2CN3CC[C@H]2C[C@@H]3CNC(=O)c2ccco2)n1 [CBK289120],109%
12,Cc1ccc(CCC(=O)N2CCCCC2c2nc3ccccc3[nH]2)o1 (stereo not shown) [CBK282316],85.7%
13,Cc1c(C(=O)N(C(C)C)C2CC2)nnn1-c1ccc2ncccc2c1 [CBK305518],92.5%
14,Nc1ccc2c(-c3cc(F)cc(F)c3)ccnc2n1 [CBK067638],93.4%
15,CC(C)(C)c1ccccc1NC(=O)N(CCCN)Cc1cc(F)cc(F)c1 [CBK034697C],82.7%
16,CC1(C)SC(NCC2CCCCC2)=NC1=O [CBK067808],91.2%
17,Cc1nn(CCC(=O)NC(C)Cc2ccccn2)c(C)c1Cl (stereo not shown) [CBK281419],97.1%
18,Cc1cc(C(=O)Nc2ccc(-c3nc4ccccc4s3)c(O)c2)ccc1[N+](=O)[O-] [CBK262820],92.6%
19,COc1ccc(Cl)cc1Nc1nc(N)nc(CC(=O)CSc2ccc(C)cc2)n1 [CBK265200],90.2%
20,COC(=O)c1ccc(Cl)c(NC(=O)CSc2nnc(-c3ccncc3)[nH]2)c1 [CBK268702],105%
21,CNS(=O)(=O)c1cccc(C(C)NC(=O)N2CCC2)c1 (stereo not shown) [CBK306257],87.1%
22,CC(C)=NNC(=N)Nc1ccccc1 [CBK021452],90.4%

row,Structure (SMILES),"viability at 28.5 h, 10 µM"
1,O=C1C2CCCCC2C(=O)N1CCCN1CCC(c2nc(-c3ccc(F)cc3)c3ccccn23)CC1 (stereo not shown) [CBK035972],90.1%
2,COc1cc(/C=N/Nc2nc(-c3ccccc3)cc(-c3ccc(OC)c(OC)c3)n2)ccc1O [CBK262841],52.2%
3,Cc1ccncc1C(=O)N1CCc2ccccc21 [CBK200400],109%
4,O=C(O)CC1C(=O)NCCN1CCCc1ccccc1 (stereo not shown) [CBK287176],90.2%
5,COc1cc(NC(=O)N2CCNC(=O)C2)cc(OC)c1OC [CBK155875],104%
6,COc1ccc(S(=O)(=O)N2CCN(Cc3cc(OC)c(OC)c(OC)c3)CC2)cc1 [CBK263330],89.3%
7,CC(=O)NCCNC(=O)c1ccc(-c2ccccc2)nc1NCCc1ccccn1 [CBK076595],91.3%
8,Cc1c(C(=O)Nc2cccnc2)nnn1-c1cccc(C(F)(F)F)c1 [CBK107389],97.1%
9,O=C(NCc1ccc2c(c1)OCO2)c1ccc2c(c1)C(=O)N(Cc1cccnc1)C2=O [CBK267824],89.3%
10,CCOC(=O)c1sc(-c2ccccc2)nc1C [CBK074204],87.5%
11,C/C(=N\NC(=O)CSCc1ccccc1Br)c1cccc([N+](=O)[O-])c1 [CBK026344],95.9%
12,COc1ccc(C2c3cc(OC)c(OC)cc3CC(=O)N2c2ccc(C(=O)O)cc2)cc1OC (stereo not shown) [CBK296082],96.4%
13,CCn1c(CN[C@@H]2CCC[C@H]2Cc2cc(C)no2)cnc1SC [CBK282965],96.6%
14,C[C@@H](Nc1cncc(-c2cccs2)n1)c1ccccc1 [CBK065711],108%
15,Cc1cccc(-n2ncc3c2ncn2c(COc4ccccc4C)nnc32)c1 [CBK265567],86.2%
16,O=C(CSc1n[nH]c(=O)n1Cc1ccccc1)NCc1ccc(-c2ccc(Cl)cc2)o1 [CBK296963],102%
17,CC(C)OC(=O)COc1ccc2c(=O)c(Oc3ccccc3Br)coc2c1 [CBK264226],94%
18,Cc1ccc(C2c3c(oc4ccccc4c3=O)C(=O)N2CCCCCC(=O)O)cc1 (stereo not shown) [CBK287158],94.1%
19,Cc1ccc2nc(-c3ccccc3)c(C)c(C(=O)O)c2c1 [CBK270268],87.6%
20,CCCC/C=C/c1nccnc1NCc1ccncc1 [CBK037500],108%
21,COCC(=O)NC(Cc1ccsc1)c1nc(C)c(C)s1 (stereo not shown) [CBK284773],100%
22,CC(=O)Nc1ccc(-c2ccc(C(=O)NCCc3ccc(O)cc3)cn2)cc1 [CBK158840],105%
